Substitutions are numbered along the chain they refer to.
How the values were obtained:
GlyT2 F515W mutant = target: T1, GlyT2 F515W mutant (Homo sapiens, UniProt Q9Y345, F515W); settings: read-out: Glycine EC50; F515W (TM7)
T1 sequence (Q9Y345 1-797 F515W): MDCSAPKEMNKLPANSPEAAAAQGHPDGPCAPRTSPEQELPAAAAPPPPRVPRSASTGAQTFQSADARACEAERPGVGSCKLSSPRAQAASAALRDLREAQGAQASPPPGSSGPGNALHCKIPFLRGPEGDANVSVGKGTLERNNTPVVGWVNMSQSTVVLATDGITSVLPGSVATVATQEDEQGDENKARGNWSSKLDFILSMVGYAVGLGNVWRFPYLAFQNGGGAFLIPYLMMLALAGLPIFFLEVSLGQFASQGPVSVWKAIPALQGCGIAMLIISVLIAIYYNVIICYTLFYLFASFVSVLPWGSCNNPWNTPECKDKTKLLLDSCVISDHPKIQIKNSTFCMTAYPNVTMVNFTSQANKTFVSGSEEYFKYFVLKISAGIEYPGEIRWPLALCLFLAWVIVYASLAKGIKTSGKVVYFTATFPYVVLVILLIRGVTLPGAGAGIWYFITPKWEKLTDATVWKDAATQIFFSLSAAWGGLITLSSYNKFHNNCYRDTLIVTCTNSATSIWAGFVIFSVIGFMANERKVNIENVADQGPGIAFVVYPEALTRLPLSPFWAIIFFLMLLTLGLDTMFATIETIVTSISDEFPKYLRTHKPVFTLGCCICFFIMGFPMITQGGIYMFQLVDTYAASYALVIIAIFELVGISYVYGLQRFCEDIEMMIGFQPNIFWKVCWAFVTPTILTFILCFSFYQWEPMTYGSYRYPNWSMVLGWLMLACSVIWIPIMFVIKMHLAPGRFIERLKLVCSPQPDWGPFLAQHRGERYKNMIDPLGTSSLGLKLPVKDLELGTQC
Description: (§1) GlyT2a (referred to herein as GlyT2) was subcloned into the plasmid oocyte transcription vector (pOTV) for expression in Xenopus laevis oocytes. Oligonucleotide primers incorporating desired mutations were synthesized by Sigma-Aldrich and used to generate point mutations in the GlyT2 cDNA/pOTV construct using the Q5 site-directed mutagenesis kit (New England Biolabs [Genesearch]). Amplified PCR products were transformed into chemically competent E. coli cells and purified using the GeneJET Plasmid Miniprep Kit (Thermo Fisher Scientific). Purified plasmid DNA was sequence-verified by the Australian Genome Research Facility. pOTV constructs were linearized with the restriction enzyme SpeI (New England Biolabs [Genesearch]), and RNA was transcribed by T7 RNA polymerase using the mMESSAGE mMACHINE T7 kit (Thermo Fisher Scientific).
(§2) The transport activity of GlyT2 is an electrogenic process as it couples the transport of glycine to the co-transport of 3 Na^+ and 1 Cl^− and thus can be measured using two-electrode voltage-clamp electrophysiology. Oocytes expressing GlyTs were voltage-clamped at −60 mV, and glycine-induced whole-cell currents were measured using a GeneClamp 500 amplifier (Axon Instruments), and a PowerLab 2/26 chart recorder (ADInstruments) and LabChart Software (ADInstruments).
(§3) Functionality of WT and mutant GlyT2 transporters was assessed by applying increasing concentrations of glycine (1–3,000 µM) in ND96 until a stable current was achieved. Glycine concentrations were applied individually and completely removed from the system via washing with recording buffer before proceeding to the next concentration. EC50 values for each transporter were determined by fitting concentration–response data to the modified Michaelis–Menten equation: I=([Gly].Imax)/(EC50+[Gly]), where I is current in nA, [Gly] is the concentration of glycine, Imax is the current generated by a maximal concentration of glycine, and EC50 is the concentration of glycine that generates a half-maximal current.

GlyT2 T512A mutant = target: T2, GlyT2 T512A mutant (Homo sapiens, UniProt Q9Y345, T512A)
T2 sequence (Q9Y345 1-797 T512A): T1 sequence (Q9Y345 1-797 F515W) with T512A, W515F
Description: as §1, §2, §3

GlyT2 L198A mutant = GlyT2 L198A mutant (Homo sapiens, UniProt Q9Y345, L198A)
Description: as §1, §2, §3

GlyT2 L198A mutant, sequence (Q9Y345 whole entry L198A): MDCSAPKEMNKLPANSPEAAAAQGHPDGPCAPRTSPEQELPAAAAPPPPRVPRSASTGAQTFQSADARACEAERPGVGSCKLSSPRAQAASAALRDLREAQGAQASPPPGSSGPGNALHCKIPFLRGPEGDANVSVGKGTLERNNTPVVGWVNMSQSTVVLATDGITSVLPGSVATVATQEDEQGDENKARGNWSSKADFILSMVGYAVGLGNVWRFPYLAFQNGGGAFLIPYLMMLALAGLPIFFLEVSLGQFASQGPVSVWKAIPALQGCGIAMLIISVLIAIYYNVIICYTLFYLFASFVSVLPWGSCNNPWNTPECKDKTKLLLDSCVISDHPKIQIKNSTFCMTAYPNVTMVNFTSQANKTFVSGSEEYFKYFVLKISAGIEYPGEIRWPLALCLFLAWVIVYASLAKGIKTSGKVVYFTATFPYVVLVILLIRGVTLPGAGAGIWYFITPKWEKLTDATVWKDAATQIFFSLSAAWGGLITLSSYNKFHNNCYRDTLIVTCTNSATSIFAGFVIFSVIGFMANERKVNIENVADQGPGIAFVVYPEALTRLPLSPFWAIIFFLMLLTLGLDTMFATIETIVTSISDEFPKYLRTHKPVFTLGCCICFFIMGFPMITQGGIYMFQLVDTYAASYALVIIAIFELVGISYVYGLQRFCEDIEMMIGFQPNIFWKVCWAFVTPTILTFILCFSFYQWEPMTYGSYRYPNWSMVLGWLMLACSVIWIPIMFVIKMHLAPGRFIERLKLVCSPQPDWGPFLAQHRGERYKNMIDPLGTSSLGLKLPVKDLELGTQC

NCC(=O)O [Glycine, glycine] was tested, and the EC50 (GlyT2 F515W mutant) was 7.6 µM, the “Reduction in apparent glycine affinity compared to WT” value (GlyT2 T512A mutant; T512A vs WT) was 4.8 fold and the EC50 (GlyT2 T512A mutant; read-out: Glycine EC50, T512A (TM7)) was 90 µM. For the same molecule, the “Increase of glycine EC50 compared to WT” value (GlyT2 L198A mutant; L198A vs WT) was 1.5 fold and the EC50 (GlyT2 L198A mutant; read-out: Glycine EC50, L198A (TM1)) was 28 µM.
